Here are results for one compound from patent US5350681A, “Enzymatic membrane method for the synthesis and separation of peptides” (The Coca-Cola Company, priority 1992, dated 1994).

For the data set the following is noted: pH 5.

On to `CC(C)OC(=O)[C@@H](N)Cc1ccccc1` [L-phe-O-<, L-phenylalanine isopropyl ester], for which the “chemical stability of L-phe-O-< over L-phe-OMe” value is “seven times higher” and the “stability of the ester (hydrolysis to L-phenylalanine)” value is “stable”.
